Source: ChEMBL document CHEMBL1201862, “PubChem BioAssay data set” (2004)
The source made the active and inactive calls. Rule as the data show it, for most assays here: actives have a measured EC50 and inactives only a lower limit.

Assays:
[1] = tested on: Streptococcus sp. 'group A'; experiment: Streptococcus pyogenes SK(-)GAS viability under kanamycin – luminescence, BacTiterGlo, confirmation, counter-screen for streptokinase expression inhibitor project, dose response (AID 1900); assay type: functional, organism-based
Streptokinase A = target: T1, Streptokinase A (Streptococcus pyogenes serotype M1, UniProt P10520); experiment: viability-normalized secreted streptokinase activity reduction – plasminogen activation absorbance, OD405, dose response (AID 1914); assay type: functional, Streptococcus pyogenes M1 GAS;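 also: secreted streptokinase activity via plasminogen activation per viability signal from cell pellet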
T1 sequence (P10520 whole entry): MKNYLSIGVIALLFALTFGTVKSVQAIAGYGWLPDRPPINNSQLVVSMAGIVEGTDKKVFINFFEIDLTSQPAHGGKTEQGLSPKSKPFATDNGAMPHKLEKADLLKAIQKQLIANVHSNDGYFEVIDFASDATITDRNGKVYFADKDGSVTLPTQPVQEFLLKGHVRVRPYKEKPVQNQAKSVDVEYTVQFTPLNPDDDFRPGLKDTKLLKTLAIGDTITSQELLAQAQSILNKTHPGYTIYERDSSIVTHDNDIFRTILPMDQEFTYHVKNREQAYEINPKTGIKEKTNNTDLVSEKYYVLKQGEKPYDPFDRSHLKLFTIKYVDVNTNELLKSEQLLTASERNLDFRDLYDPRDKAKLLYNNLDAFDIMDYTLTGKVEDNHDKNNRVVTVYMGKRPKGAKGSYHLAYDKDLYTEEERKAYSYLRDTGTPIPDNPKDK

Streptococcus = experiment: GAS UMAA2166 growth inhibition – luminescence, BacTiterGlo, counter-screen for streptokinase expression inhibitor project, dose response (AID 1915); assay type: functional, organism-based; conditions: read-out: EC50;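 also: potency for reduction of bacterial viability or growth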
[2] = target: T2, Corticotropin-releasing factor receptor 2/Corticotropin-releasing factor-binding protein (Homo sapiens, UniProt P24387+Q13324); experiment: activators of CRF receptor 2 with binding protein – uHTS hits, confirmation (AID 602473); assay type: functional; conditions: read-out: EC50_Mean
T2 sequence (Q13324 whole entry): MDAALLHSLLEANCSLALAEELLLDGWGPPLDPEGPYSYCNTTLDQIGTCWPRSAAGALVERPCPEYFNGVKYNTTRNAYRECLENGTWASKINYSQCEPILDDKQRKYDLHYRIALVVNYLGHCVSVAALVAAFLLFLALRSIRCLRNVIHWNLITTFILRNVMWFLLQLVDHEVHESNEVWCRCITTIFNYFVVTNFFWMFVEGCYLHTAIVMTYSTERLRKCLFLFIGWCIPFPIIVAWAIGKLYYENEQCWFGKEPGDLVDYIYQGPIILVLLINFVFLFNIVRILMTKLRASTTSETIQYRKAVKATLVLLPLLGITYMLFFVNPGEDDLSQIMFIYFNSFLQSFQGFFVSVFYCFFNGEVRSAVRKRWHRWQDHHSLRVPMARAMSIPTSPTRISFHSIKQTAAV
T2 sequence (P24387 whole entry): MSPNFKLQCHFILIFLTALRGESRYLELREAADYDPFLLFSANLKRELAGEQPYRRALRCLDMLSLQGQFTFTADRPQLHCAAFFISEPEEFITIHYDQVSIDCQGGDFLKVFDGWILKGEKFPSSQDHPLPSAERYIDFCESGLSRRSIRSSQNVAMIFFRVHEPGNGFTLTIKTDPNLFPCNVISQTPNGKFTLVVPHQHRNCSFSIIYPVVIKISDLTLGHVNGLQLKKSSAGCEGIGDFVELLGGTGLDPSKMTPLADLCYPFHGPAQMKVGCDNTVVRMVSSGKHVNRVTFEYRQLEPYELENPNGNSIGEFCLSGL

Cytochrome P450 2D6 = Cytochrome P450 2D6 (Homo sapiens, UniProt P10635);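 also: CYP2D6 member of a cytochrome P450 panel assay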
Sequence of Cytochrome P450 2D6 (P10635 whole entry): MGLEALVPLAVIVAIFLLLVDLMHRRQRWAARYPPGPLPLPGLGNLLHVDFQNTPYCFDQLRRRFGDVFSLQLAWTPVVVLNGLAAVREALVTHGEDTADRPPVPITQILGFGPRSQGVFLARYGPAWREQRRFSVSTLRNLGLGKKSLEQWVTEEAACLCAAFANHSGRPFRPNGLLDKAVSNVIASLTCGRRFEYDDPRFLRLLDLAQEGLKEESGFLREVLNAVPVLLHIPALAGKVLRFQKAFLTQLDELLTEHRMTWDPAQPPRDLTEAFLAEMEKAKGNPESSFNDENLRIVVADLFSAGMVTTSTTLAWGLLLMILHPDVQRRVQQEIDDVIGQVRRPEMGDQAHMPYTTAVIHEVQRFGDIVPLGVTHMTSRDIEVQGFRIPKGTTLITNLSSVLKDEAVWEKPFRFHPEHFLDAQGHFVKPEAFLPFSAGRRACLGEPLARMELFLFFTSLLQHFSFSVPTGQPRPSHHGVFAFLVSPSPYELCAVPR

Cytochrome P450 3A4 = Cytochrome P450 3A4 (Homo sapiens, UniProt P08684);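 also: CYP3A4 tested as one member of a cytochrome P450 panel screen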
Sequence of Cytochrome P450 3A4 (P08684 whole entry): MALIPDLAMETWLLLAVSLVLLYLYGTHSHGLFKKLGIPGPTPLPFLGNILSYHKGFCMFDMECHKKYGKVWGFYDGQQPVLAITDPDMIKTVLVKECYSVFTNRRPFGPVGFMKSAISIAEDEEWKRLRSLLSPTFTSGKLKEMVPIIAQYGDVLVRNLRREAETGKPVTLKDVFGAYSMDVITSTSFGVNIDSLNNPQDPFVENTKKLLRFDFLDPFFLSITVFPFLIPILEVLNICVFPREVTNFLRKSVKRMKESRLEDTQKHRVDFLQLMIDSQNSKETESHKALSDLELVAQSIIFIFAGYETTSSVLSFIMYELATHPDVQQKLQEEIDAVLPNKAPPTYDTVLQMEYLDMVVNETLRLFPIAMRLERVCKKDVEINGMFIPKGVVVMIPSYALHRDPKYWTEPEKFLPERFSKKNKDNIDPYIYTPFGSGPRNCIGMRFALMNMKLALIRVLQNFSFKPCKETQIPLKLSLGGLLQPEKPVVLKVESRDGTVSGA

[3] = Luminescence Cell-Based Dose Retest to Confirm Inhibitors of Cancer Stem Cells. [Related pubchem assays (depositor defined):AID2717, AID2721]; assay type: functional; conditions: Homo sapiens
[4] = target: T3, Replicative DNA helicase DnaB (Mycobacterium tuberculosis, UniProt P9WMR3); experiment: DnaB intein splicing inhibitors, dose response, biochemical, cell-free fluorescence (AID 449749); assay type: functional
T3 sequence (P9WMR3 whole entry): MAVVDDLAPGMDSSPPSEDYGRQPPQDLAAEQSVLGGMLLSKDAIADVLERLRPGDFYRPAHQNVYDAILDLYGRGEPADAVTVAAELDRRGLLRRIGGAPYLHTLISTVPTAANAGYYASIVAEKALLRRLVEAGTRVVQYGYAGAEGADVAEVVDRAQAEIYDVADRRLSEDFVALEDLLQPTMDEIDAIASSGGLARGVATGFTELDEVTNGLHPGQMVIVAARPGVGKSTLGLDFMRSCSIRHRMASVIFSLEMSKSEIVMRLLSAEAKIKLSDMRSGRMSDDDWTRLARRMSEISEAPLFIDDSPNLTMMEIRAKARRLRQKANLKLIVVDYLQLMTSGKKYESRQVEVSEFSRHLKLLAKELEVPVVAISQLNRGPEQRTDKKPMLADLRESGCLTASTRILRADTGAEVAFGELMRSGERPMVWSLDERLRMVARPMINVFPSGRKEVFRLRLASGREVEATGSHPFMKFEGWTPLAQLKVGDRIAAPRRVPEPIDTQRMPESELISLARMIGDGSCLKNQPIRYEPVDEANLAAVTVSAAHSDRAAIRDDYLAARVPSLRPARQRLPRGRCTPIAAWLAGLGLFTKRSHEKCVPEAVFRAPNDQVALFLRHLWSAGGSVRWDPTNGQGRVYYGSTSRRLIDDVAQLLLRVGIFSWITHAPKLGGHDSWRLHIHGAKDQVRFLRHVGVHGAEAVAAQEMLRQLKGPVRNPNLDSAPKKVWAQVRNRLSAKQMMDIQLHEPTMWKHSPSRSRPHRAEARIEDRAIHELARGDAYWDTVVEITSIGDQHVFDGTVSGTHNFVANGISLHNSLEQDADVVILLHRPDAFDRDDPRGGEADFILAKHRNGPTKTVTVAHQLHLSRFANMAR

Protein RecA = target: T4, Protein RecA (Mycobacterium tuberculosis, UniProt P9WHJ3); experiment: Fluorescence Cell-Free Homogeneous Dose Retest to Identify Inhibitors of RecA-Intein Splicing Activity. [Related pubchem assays (depositor defined):AID2097, AID2223, AID489010, AID492950]; assay type: functional
T4 sequence (P9WHJ3 whole entry): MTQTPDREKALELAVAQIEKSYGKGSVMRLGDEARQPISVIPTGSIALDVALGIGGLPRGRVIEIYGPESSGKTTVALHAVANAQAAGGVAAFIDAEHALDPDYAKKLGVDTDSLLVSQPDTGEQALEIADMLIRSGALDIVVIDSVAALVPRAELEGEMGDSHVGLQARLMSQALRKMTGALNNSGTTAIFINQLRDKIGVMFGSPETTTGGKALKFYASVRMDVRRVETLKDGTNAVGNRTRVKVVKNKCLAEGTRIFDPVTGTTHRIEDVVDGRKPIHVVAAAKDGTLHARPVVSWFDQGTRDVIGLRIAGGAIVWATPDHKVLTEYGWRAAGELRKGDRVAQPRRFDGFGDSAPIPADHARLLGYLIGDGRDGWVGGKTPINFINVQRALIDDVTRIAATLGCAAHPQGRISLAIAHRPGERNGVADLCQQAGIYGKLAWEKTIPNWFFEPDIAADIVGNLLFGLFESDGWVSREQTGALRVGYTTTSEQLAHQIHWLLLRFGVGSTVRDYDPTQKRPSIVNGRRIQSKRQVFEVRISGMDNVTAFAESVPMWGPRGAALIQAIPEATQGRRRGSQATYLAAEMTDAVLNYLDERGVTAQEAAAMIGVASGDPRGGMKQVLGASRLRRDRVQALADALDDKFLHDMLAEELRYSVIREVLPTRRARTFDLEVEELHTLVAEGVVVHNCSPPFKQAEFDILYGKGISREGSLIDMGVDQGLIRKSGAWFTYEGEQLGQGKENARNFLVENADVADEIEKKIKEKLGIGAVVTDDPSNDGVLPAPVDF

[5] = target: T5, Heat shock factor protein 1 (Mus musculus, UniProt P38532); experiment: decrease of HSF1-responsive luciferase luminescence – cell-based, NIH3T3, dose retest, confirmation (AID 2382); assay type: functional;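 also: NIH3T3 fibroblasts with HSF1-driven luciferase reporter stressed by proteasome inhibitor MG132; luminescence from HSF1-driven luciferase expression after 8 hours of MG132 stress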
T5 sequence (P38532 whole entry): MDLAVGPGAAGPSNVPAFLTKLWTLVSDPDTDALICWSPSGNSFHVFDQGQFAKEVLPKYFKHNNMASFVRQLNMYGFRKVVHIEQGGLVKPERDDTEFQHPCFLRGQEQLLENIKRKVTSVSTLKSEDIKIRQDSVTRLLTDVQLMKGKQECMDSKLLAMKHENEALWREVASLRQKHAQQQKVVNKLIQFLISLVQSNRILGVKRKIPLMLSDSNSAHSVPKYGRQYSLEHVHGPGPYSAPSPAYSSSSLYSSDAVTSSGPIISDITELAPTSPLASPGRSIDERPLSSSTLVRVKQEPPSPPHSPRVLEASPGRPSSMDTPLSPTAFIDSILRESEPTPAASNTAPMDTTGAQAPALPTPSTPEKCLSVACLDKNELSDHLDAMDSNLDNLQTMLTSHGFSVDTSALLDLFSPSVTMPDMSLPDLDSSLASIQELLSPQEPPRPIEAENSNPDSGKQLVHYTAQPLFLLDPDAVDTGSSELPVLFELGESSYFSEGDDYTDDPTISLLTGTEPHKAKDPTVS

[6] = reduction of Shn3 3'UTR-driven luciferase in osteoblasts – cell-based, Clone20 osteoblasts, firefly luciferase, cherry-picked, dose response (AID 624132); assay type: functional;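 also: firefly luciferase luminescence from reporter carrying the Shn3 3'UTR in osteoblasts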

SMILES	EC50 [1]	EC50 (Streptokinase A)	EC50 (Streptococcus)	AC50 (Cytochrome P450 2D6)	further results
c1ccc(-c2oc3ncnc(NCCCn4ccnc4)c3c2-c2ccccc2)cc1	23.4 µM (active)	> 150 µM (not active)	> 150 µM (not active)		
Cc1cccc(Cc2cnc(NC(=O)c3ccc(C)o3)s2)c1	16.6 µM (active)	> 150 µM (not active)	> 150 µM (not active)		
O=C(/C=C/c1ccco1)NC(=S)Nc1ccc(N2CCOCC2)c(Cl)c1	109 µM (active)	> 150 µM (not active)	54.4 µM (active)		
CC(=O)c1c(C)c2c(n1CCN(C)C)CCCC2					EC50 [2]: 2.74 µM (active)
CN1CCN(c2ncc3nc(-c4ccccc4)c(=O)n(CCc4ccccc4)c3n2)CC1				39.8 µM (inconclusive)	
C[C@]1(CC(=O)O)O[C@H]2CCCCC[C@H]2O1.NCc1ccccc1				3.16 µM (inconclusive)	AC50 (Cytochrome P450 3A4): 0.251 µM (inconclusive)
Cc1cc(C)c(-c2cc(NC(=O)COC(=O)c3ccc(CO)cc3)n(-c3ccccc3)n2)cc1C	5.49 µM (active)	48.4 µM (active)	32.4 µM (active)		
Oc1nc(CN2CC=C(c3ccccc3)CC2)nc2scc(-c3ccccc3)c12	7.76 µM (active)	> 150 µM (not active)	50.3 µM (active)		AC50 [3]: 2.56 µM (active)
CCN(CC)S(=O)(=O)c1ccc(NN=C(C#N)C#N)cc1					AC50 [4]: 5.03 µM (active); EC50 (Protein RecA): 15 µM (active)
CCS(=O)(=O)c1ccc2oc(Nc3cc(C)cc(C)c3)nc2c1				25.1 µM (inconclusive)	AC50 (Cytochrome P450 3A4): 28.2 µM (inconclusive)
Cn1c(-[n+]2c(-c3ccccc3)cc(-c3ccccc3)cc2-c2ccccc2)nc2c([N+](=O)[O-])cccc21					AC50 [4]: 15.3 µM (active); EC50 (Protein RecA): 15.3 µM (active)
O=C(C1CCC(=O)N1Cc1ccccc1Cl)N1CCN(c2cccc(Cl)c2)CC1 (centres undefined)				14.1 µM (inconclusive)	AC50 (Cytochrome P450 3A4): 0.0355 µM (inconclusive)
O=C(Nc1ccc(Cl)c(Cl)c1)N1CC=C(c2ccccc2)CC1	9.92 µM (active)	11.9 µM (active)	21 µM (active)		
CCOc1cc(C(c2c(C)n[nH]c2O)c2c(C)n[nH]c2O)cc(Br)c1OC					EC50 [5]: > 195 µM (not active); AC50 [4]: 0.417 µM (active); EC50 (Protein RecA): 0.231 µM (active)
Cc1cc(NC(=O)CC2CCCC2)n(-c2nc3ccccc3[nH]2)n1	6.41 µM (active)	> 150 µM (not active)	> 150 µM (not active)		
Cn1c(=O)c(C(=O)COc2ccc(C#N)cc2)c(N)n(Cc2ccccc2)c1=O					EC50 [2]: 10.9 µM (active)
COC(=O)[C@@]1(Cc2ccc(OC)cc2)[C@H]2c3cc(C(=O)N(C)C)n(Cc4ccc(C)o4)c3C[C@H]2CN1C(=O)c1ccccc1				39.8 µM (inconclusive)	
O=C(Nc1ccccc1)c1ccccc1NC(=O)C(F)(F)F					EC50 [2]: > 53 µM (inactive)
CN(C)C(=O)c1cn(N(C)c2ncc(C(F)(F)F)cc2Cl)c(=O)c2ccccc12				25.1 µM (inconclusive)	AC50 (Cytochrome P450 3A4): 10 µM (inconclusive)
Cc1onc(-c2ccccc2)c1C(=O)NCCc1c[nH]c2ccccc12				12.6 µM (inconclusive)	
COc1ccc2cc(C(=O)NCc3ccccc3)/c(=N/c3ccc(C(=O)O)cc3)oc2c1	10.2 µM (active)	> 150 µM (not active)	22.4 µM (active)		
COc1ccc(C(=O)NNC(=O)c2cccc(S(=O)(=O)N3CCOCC3)c2)cc1					AC50 [6]: 23.2 µM (active)
C[C@]12CC[C@@H](O)C[C@@H]1CC[C@@H]1[C@@H]2CC[C@]2(C)C(=O)CC[C@@H]12 [ANDROSTERONE]					AC50 [6]: 40.1 µM (active)
CNC(C)(C)Cc1ccccc1 [MEPHENTERMINE]				10 µM (inconclusive)	
